From patent US20090028888A1, “Cancer Antigen Mage-A9 and Uses Thereof” (priority 2005, published 2009)

Assays:
[1] = system: CT genes; settings: cited from earlier work; for expression of CT genes, combination with 5-AZA-DC: HDAC inhibitor combined with 5-AZA-DC
[2] = system: MAGE-A9 gene expression in bladder cancer cell lines; test: RT-PCR analysis of MAGE-A9 gene expression induction in bladder cancer cell lines; settings: MGH-U3, 5637 and VMCUB-3; 1 μM 5-AZA-DC alone, 96 hours

SMILES | induction of the expression of several CT genes ([1]; single agent) | MAGE-A9 mRNA induction [2] | expression of CT genes, combination with 5-AZA-DC [1]
Nc1ncn([C@H]2C[C@H](O)[C@@H](CO)O2)c(=O)n1 [5-AZA-DC, 5-aza-2′-deoxycytidine] | potent inducers | strongly induced | 
C/C=C1\NC(=O)[C@H]2CSSCC/C=C/[C@H](CC(=O)N[C@H](C(C)C)C(=O)N2)OC(=O)[C@H](C(C)C)NC1=O [depsipetide] |  |  | stronger expression
CC(/C=C/C(=O)NO)=C\[C@@H](C)C(=O)c1ccc(N(C)C)cc1 [trichostatin A] |  |  | stronger expression
